The source of these data is patent publication US20250081967A1, “PESTICIDALLY ACTIVE HETEROCYCLIC DERIVATIVES WITH SULFOXIMINE CONTAINING SUBSTITUENTS” (SYNGENTA CROP PROTECTION AG, priority 2021, published 2025).

Molecules are shown by their SMILES.

Common to all, as to assay type: in vivo
The subject of data set [1] is Myzus persicae. As to the kind of experiment: Activity against Myzus persicae (green peach aphid), systemic activity, pea seedlings. As to conditions: for mortality at 24 ppm: Myzus persicae. As for the experimental part: Example B5: Activity Against Myzus persicae (Green Peach Aphid) Systemic Activity
Roots of pea seedlings infested with an aphid population of mixed ages were placed directly in the aqueous test solutions prepared from 10′000 DMSO stock solutions. The samples were assessed for mortality 6 days after placing seedlings in test solutions.

Data set [2] concerns Plutella xylostella. As to the kind of experiment: Activity against Plutella xylostella (diamond back moth), artificial diet, eggs. The settings on record: 192 h, application rate 200 ppm, 8 days after infestation, read-out: effect in at least one of the two categories (mortality or growth inhibition). The method, then:
Example B9: Activity Against Plutella xylostella (Diamond Back Moth)
24-well microtiter plates with artificial diet were treated with aqueous test solutions prepared from 10′000 ppm DMSO stock solutions by pipetting. After drying, Plutella eggs were pipetted through a plastic stencil onto a gel blotting paper and the plate was closed with it. The samples were assessed for mortality and growth inhibition in comparison to untreated samples 8 days after infestation.

In data set [3] the test system is Diabrotica balteata. As to the kind of experiment: Activity against Diabrotica balteata (corn root worm), maize sprouts. As to conditions: for percent effect (mortality or growth inhibition) at 200 ppm: 96 h, application rate 200 ppm, L2 larvae, 4 days after infestation, read-out: effect in at least one of the two categories (mortality or growth inhibition); for Mortality (%) / mortality at 50 ppm: concentration 50 ppm. As for the experimental part:
Example B3: Activity Against Diabrotica Balteata (Corn Root Worm)
Maize sprouts placed onto an agar layer in 24-well microtiter plates were treated with aqueous test solutions prepared from 10′000 ppm DMSO stock solutions by spraying. After drying, the plates were infested with L2 larvae (6 to 10 per well). The samples were assessed for mortality and growth inhibition in comparison to untreated samples 4 days after infestation.

In data set [4] the test system is Spodoptera littoralis. As to the kind of experiment: Activity against Spodoptera littoralis (Egyptian cotton leaf worm), cotton leaf discs. As to conditions: foliar, 72 h, application rate 200 ppm, L1 larvae, 3 days after infestation, read-out: control (mortality, anti-feeding effect or growth inhibition). As for the experimental part: Example B1: Activity Against Spodoptera littoralis (Egyptian Cotton Leaf Worm)
Cotton leaf discs were placed onto agar in 24-well microtiter plates and sprayed with aqueous test solutions prepared from 10′000 ppm DMSO stock solutions. After drying the leaf discs were infested with five L1 larvae. The samples were assessed for mortality, anti-feeding effect, and growth inhibition in comparison to untreated samples 3 days after infestation. Control of Spodoptera littoralis by a test sample is given when at least one of the categories mortality, anti-feedant effect, and growth inhibition is higher than the untreated sample.

Data set [5] has as its system Myzus persicae. As to the kind of experiment: Activity against Myzus persicae (green peach aphid), feeding/contact activity, sunflower leaf discs. As to conditions: Myzus persicae, foliar; for mortality at 200 ppm: 144 h, application rate 200 ppm, feeding/contact, 6 days after infestation. As for the experimental part: Example B4: Activity Against Myzus persicae (Green Peach Aphid) Feeding/Contact Activity
Sunflower leaf discs were placed on agar in a 24-well microtiter plate and sprayed with aqueous test solutions prepared from 10′000 ppm DMSO stock solutions. After drying, the leaf discs were infested with an aphid population of mixed ages. The samples were assessed for mortality 6 days after infestation.

Data set [6] deals with Bemisia tabaci. As to the kind of experiment: Activity against Bemisia tabaci (cotton white fly), cotton leaf discs. As to conditions: for mortality at 200 ppm / mortality at 12.5 ppm: foliar; for mortality at 200 ppm: 144 h, application rate 200 ppm, adult white flies, 6 days after incubation. The method, then: Example B6: Activity Against Bemisia tabaci (Cotton White Fly)
Cotton leaf discs were placed on agar in 24-well microtiter plates and sprayed with aqueous test solutions prepared from 10′000 ppm DMSO stock solutions. After drying the leaf discs were infested with adult white flies. The samples were checked for mortality 6 days after incubation.

The mark [7] stands for this setting: 144 h, test rate 24 ppm, systemic, 6 days after placing seedlings in test solutions.
Where [8] appears, read: Myzus persicae (systemic), concentration 24 ppm.

The term mortality denotes the percentage killed. A high value points to fewer survivors. On to `CCS(=N)(=O)c1cc(OC(C)(C)C#N)cnc1-c1cn2ccc(C(F)(F)F)cc2n1` (single isomer, unassigned) [Compound P3-B, 2-[[5-(ethylsulfonimidoyl)-6-[7-(trifluoromethyl)imidazo[1,2-a]pyridin-2-yl]-3-pyridyl]oxy]-2-methyl-propanenitrile], for which the mortality at 24 ppm in data set [1] (setting [7]) was at least 80%. The percent effect (mortality or growth inhibition) at 200 ppm in data set [2] was at least 80%.
Consider `CCS(=N)(=O)c1cc(C(C)(C)C#N)cnc1-c1nc2cc(C(F)(F)F)ncc2n1C` (single isomer, unassigned) [Compound P4-B, 2-[5-(ethylsulfonimidoyl)-6-[3-methyl-6-(trifluoromethyl)imidazo[4,5-c]pyridin-2-yl]-3-pyridyl]-2-methyl-propanenitrile], for which the percent effect (mortality or growth inhibition) at 200 ppm in data set [3] and in data set [2] was at least 80% each time.
On to `CCS(=N)(=O)c1cc(C2(C#N)CC2)ccc1-c1nc2cc(C(F)(F)F)cnc2n1C` (single isomer, unassigned) [Compound P6-B, 1-[3-(ethylsulfonimidoyl)-4-[3-methyl-6-(trifluoromethyl)imidazo[4,5-b]pyridin-2-yl]phenyl]cyclopropanecarbonitrile], for which the percent control (mortality, anti-feedant effect or growth inhibition) at 200 ppm in data set [4] is at least 80%. For the same molecule, the “Mortality (%)” value came out at 80% in data set [3] and 100% in data set [1] (Myzus persicae (systemic), concentration 6 ppm). Besides, in data set [2], the percent effect (mortality or growth inhibition) at 200 ppm was at least 80%.
On to `CCS(=N)(=O)c1cc(C2(C#N)CC2)cnc1-c1nc2cc(C(F)(F)F)ncc2n1C` (single isomer, unassigned) [Compound P10-A, 1-[5-(ethylsulfonimidoyl)-6-[3-methyl-6-(trifluoromethyl)imidazo[4,5-c]pyridin-2-yl]-3-pyridyl]cyclopropanecarbonitrile], for which the percent effect (mortality or growth inhibition) at 200 ppm in data set [3] and in data set [2] was at least 80% throughout. The mortality at 200 ppm in data set [5] and in data set [6] was at least 80% in each case. The molecule further showed a mortality at 0.781 ppm in data set [5] (Myzus persicae (feeding/contact), concentration 0.781 ppm) of 80%. Besides, the mortality at 24 ppm in data set [1] (setting [7]) is at least 80%. Further, in data set [6] (concentration 12.5 ppm), the mortality at 12.5 ppm turned out to be 80%.
`CCS(=N)(=O)c1cc(C(C)(C)C#N)cnc1-c1nc2cc(C(F)(F)F)cnc2n1C` (single isomer, unassigned) [Compound P12-A, 2-[5-(ethylsulfonimidoyl)-6-[3-methyl-6-(trifluoromethyl)imidazo[4,5-b]pyridin-2-yl]-3-pyridyl]-2-methyl-propanenitrile]: the percent effect (mortality or growth inhibition) at 200 ppm in data set [3] and in data set [2] was at least 80% in each case. Moreover, the mortality at 200 ppm in data set [5] and in data set [6] was at least 80% throughout. In data set [1] (setting [7]), this molecule showed a mortality at 24 ppm of at least 80%.
`CCS(=N)(=O)c1cc(OC(C)(C)C#N)cnc1-c1nc2cc(C(F)(F)F)ncc2n1C` (single isomer, unassigned) [Compound P13-A, 2-[[5-(ethylsulfonimidoyl)-6-[3-methyl-6-(trifluoromethyl)imidazo[4,5-c]pyridin-2-yl]-3-pyridyl]oxy]-2-methyl-propanenitrile]: the percent effect (mortality or growth inhibition) at 200 ppm in data set [3] and in data set [2] was at least 80% each time. The molecule also showed a mortality at 50 ppm in data set [3] of 80%. Also, the mortality at 200 ppm in data set [5] and in data set [6] was at least 80% throughout. Further, the mortality at 12.5 ppm in data set [5] (Myzus persicae (feeding/contact), concentration 12.5 ppm) turned out to be 80%. The molecule also returned a mortality at 24 ppm in data set [1] (setting [7]) of at least 80%.
As for `CCS(=N)(=O)c1cc(OC(C)(C)C#N)cnc1-c1nc2cc(C(F)(F)F)nnc2n1C` (single isomer, unassigned) [Compound P15-A, 2-[[5-(ethylsulfonimidoyl)-6-[7-methyl-3-(trifluoromethyl)imidazo[4,5-c]pyridazin-6-yl]-3-pyridyl]oxy]-2-methyl-propanenitrile], the percent control (mortality, anti-feedant effect or growth inhibition) at 200 ppm in data set [4] is at least 80%. For the same molecule, the percent effect (mortality or growth inhibition) at 200 ppm in data set [3] and in data set [2] was at least 80% each time. Besides, the mortality at 12.5 ppm in data set [3] (concentration 12.5 ppm) came to 80%. Besides, the mortality at 200 ppm in data set [5] and in data set [6] was at least 80% in each case. Besides, in data set [1] (setting [7]), the mortality at 24 ppm is at least 80%.
Regarding `CCS(=N)(=O)c1cc(C2(C#N)CC2)cnc1-c1nc2cc(C(F)(F)F)cnc2n1C` (single isomer, unassigned) [Compound P16-A, 1-[5-(ethylsulfonimidoyl)-6-[3-methyl-6-(trifluoromethyl)imidazo[4,5-b]pyridin-2-yl]-3-pyridyl]cyclopropanecarbonitrile], the percent effect (mortality or growth inhibition) at 200 ppm in data set [3] and in data set [2] was at least 80% in each case. Moreover, the mortality at 200 ppm in data set [5] and in data set [6] was at least 80% throughout. This molecule also returned a mortality at 3.125 ppm in data set [5] (Myzus persicae (feeding/contact), concentration 3.125 ppm) of 100%. In data set [1] (setting [7]), this molecule came in with a mortality at 24 ppm of at least 80%. Besides, in data set [6] (concentration 12.5 ppm), the mortality at 12.5 ppm is 100%.
Consider `CCS(=N)(=O)c1cc(OC(C)(C)C#N)c(C)nc1-c1nc2cc(C(F)(F)F)ncc2n1C` (single isomer, unassigned) [Compound P17-A, 2-[[5-(ethylsulfonimidoyl)-2-methyl-6-[3-methyl-6-(trifluoromethyl)imidazo[4,5-c]pyridin-2-yl]-3-pyridyl]oxy]-2-methyl-propanenitrile], for which the percent effect (mortality or growth inhibition) at 200 ppm in data set [3] and in data set [2] was at least 80% in each case. In addition, the mortality at 200 ppm in data set [5] and in data set [6] was at least 80% throughout. Besides, the mortality at 24 ppm in data set [1] (setting [7]) is at least 80%.
As to `CCS(=N)(=O)c1cc(C2(C#N)CC2)ccc1-c1nc2cc(C(F)(F)F)ncc2n1C` (single isomer, unassigned) [Compound P18-A, 1-[3-(ethylsulfonimidoyl)-4-[3-methyl-6-(trifluoromethyl)imidazo[4,5-c]pyridin-2-yl]phenyl]cyclopropanecarbonitrile], the percent effect (mortality or growth inhibition) at 200 ppm in data set [3] and in data set [2] was at least 80% throughout. In addition, the “Mortality (%)” value in data set [3] and in data set [6] (concentration 12.5 ppm) was 100% throughout. The mortality at 200 ppm in data set [5] and in data set [6] was at least 80% in each case. For the same molecule, the mortality at 24 ppm in data set [1] (setting [7]) was at least 80%.
On to `CC[S@@](=N)(=O)c1cc(OC(C)(C)C#N)cnc1-c1nc2cc(C(F)(F)F)cnc2n1C` [Compound P9-A, (R)-2-[[5-(ethylsulfonimidoyl)-6-[3-methyl-6-(trifluoromethyl)imidazo[4,5-b]pyridin-2-yl]-3-pyridyl]oxy]-2-methyl-propanenitrile], for which the percent control (mortality, anti-feedant effect or growth inhibition) at 200 ppm in data set [4] is at least 80%. Also, the percent effect (mortality or growth inhibition) at 200 ppm in data set [3] and in data set [2] was at least 80% in each case. Further, the mortality at 50 ppm in data set [3] stood at 80%. Moreover, the mortality at 200 ppm in data set [5] and in data set [6] was at least 80% throughout. The mortality at 24 ppm in data set [1] (setting [7]) was at least 80%; in data set [1] (setting [8]) it was 100%.
For the molecule `CC[S@](=N)(=O)c1cc(OC(C)(C)C#N)cnc1-c1nc2cc(C(F)(F)F)cnc2n1C` [Compound P9-B, (S)-2-[[5-(ethylsulfonimidoyl)-6-[3-methyl-6-(trifluoromethyl)imidazo[4,5-b]pyridin-2-yl]-3-pyridyl]oxy]-2-methyl-propanenitrile], the percent control (mortality, anti-feedant effect or growth inhibition) at 200 ppm in data set [4] is at least 80%. Moreover, the percent effect (mortality or growth inhibition) at 200 ppm in data set [3] and in data set [2] was at least 80% in each case. The mortality at 50 ppm in data set [3] amounted to 100%. Besides, the mortality at 200 ppm in data set [5] and in data set [6] was at least 80% in each case. Further, the results for the mortality at 24 ppm in data set [1] (setting [7]) and in data set [1] (setting [8]) were at least 80% and 100%, respectively.
